Consider 5 compounds from US11655225B2, “Antimycobacterial heterocyclic amides” (Crestone, Inc., priority 2018, dated 2023).

Each structure is given as a SMILES string. In brackets after ≈: the same amount, converted by molar mass.

The subject of this test is isoniazid-, rifampin-, and fluoroquinolone-resistant M. tuberculosis. In words: microbe, parasite or virus in culture. The format is cell-based. The following applies: for MIC: Mycobacterium tuberculosis; for activity against resistant strains: isoniazid-, rifampin-, and fluoroquinolone-resistant M. tuberculosis.

Consider `CC12CCCC(C(=O)Nc3nc4cc(Cl)cc(Cl)c4s3)(CCC1)C2` [Example 2, N-(5,7-dichloro-1,3-benzothiazol-2-yl)-5-methylbicyclo[3.3.1]nonane-1-carboxamide], for which the MIC was in the range of 0.03 to 4 µg/mL (≈ 0.0783 to 10.4 µM) and the “activity against resistant strains” value is listed as “active”.

With `CC12CCCC(C(=O)Nc3nc4ccc(OC(F)(F)F)cc4s3)(CCC1)C2` [Example 5, 5-methyl-N-[6-(trifluoromethoxy)-1,3-benzothiazol-2-yl]bicyclo[3.3.1]nonane-1-carboxamide], the MIC lay within 0.03 to 4 µg/mL (≈ 0.0753 to 10 µM) and the “activity against resistant strains” value is “active”.

As for `CC12CC3CC(C)(C1)CC(C(=O)Nc1nc4ccc(OC(F)(F)F)cc4s1)(C3)C2` [Example 45, 3,5-dimethyl-N-[6-(trifluoromethoxy)-1,3-benzothiazol-2-yl]adamantane-1-carboxamide], the MIC is 0.03 to 4 µg/mL (≈ 0.0707 to 9.42 µM) and the “activity against resistant strains” value is given as “active”.

In the case of `CC1CC(C(=O)Nc2nc3ccc(OC(F)(F)F)cc3s2)CC(C)(C)C1` (stereo not shown) [Example 46, 3,3,5-trimethyl-N-[6-(trifluoromethoxy)-1,3-benzothiazol-2-yl]cyclohexane-1-carboxamide], the MIC lay in the range of 0.03 to 4 µg/mL (≈ 0.0776 to 10.4 µM) and the “activity against resistant strains” value is given as “active”.

Take `CC1CC(C(=O)Nc2nc3c(F)cc(F)cc3s2)CC(C)(C)C1` (stereo not shown) [Example 80, N-(4,6-difluoro-1,3-benzothiazol-2-yl)-3,3,5-trimethylcyclohexane-1-carboxamide]: the MIC lay in the range of 0.03 to 4 µg/mL (≈ 0.0886 to 11.8 µM) and the “activity against resistant strains” value is recorded as “active”.
